For one test, the target named is Carbonic anhydrase 1 (Homo sapiens, UniProt P00915). In words: Inhibition of recombinant human carbonic anhydrase 1 preincubated with enzyme for 15 mins by phenol red dye based stopped flow CO2 hydration assay.
For test [1], the target named is Carbonic anhydrase 5A, mitochondrial (Homo sapiens, UniProt P35218). In words: Inhibition of recombinant human carbonic anhydrase VA preincubated with enzyme for 15 mins by phenol red dye based stopped flow CO2 hydration assay.
Another test concerns the target Carbonic anhydrase 2 (Homo sapiens, UniProt P00918). In words: Inhibition of recombinant human carbonic anhydrase 2 preincubated with enzyme for 15 mins by phenol red dye based stopped flow CO2 hydration assay.

For orientation: Ki means a measure of affinity in units of concentration, obtained from inhibition or displacement.

Sequence of Carbonic anhydrase 1 (P00915 whole entry): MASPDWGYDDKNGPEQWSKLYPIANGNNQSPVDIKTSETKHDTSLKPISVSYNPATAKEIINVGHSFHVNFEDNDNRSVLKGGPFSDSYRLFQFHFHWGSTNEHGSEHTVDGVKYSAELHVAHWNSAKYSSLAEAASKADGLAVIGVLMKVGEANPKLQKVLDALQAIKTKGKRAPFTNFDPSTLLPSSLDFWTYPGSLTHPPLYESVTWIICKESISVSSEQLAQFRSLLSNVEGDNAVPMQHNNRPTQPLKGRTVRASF
Sequence of Carbonic anhydrase 5A, mitochondrial (P35218 whole entry): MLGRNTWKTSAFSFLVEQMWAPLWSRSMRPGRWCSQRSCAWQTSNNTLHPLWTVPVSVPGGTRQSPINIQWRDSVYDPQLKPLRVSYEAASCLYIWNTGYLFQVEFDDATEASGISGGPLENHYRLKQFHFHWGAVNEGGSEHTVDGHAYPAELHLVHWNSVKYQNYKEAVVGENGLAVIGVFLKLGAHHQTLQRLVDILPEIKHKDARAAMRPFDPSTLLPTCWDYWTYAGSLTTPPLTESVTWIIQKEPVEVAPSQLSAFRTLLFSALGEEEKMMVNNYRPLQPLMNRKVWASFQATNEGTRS

For the compound `Nc1nc(F)nc2c1ncn2[C@@H]1O[C@H](COP(=O)(O)O)[C@@H](O)[C@@H]1O` [FLUDARABINE PHOSPHATE], the Ki was more than 10 µM at Carbonic anhydrase 1, 0.131 µM in test [1] and more than 10 µM on Carbonic anhydrase 2.
Regarding `O=C(Cc1nnc(O)nc1O)N/N=C/c1c(O)ccc2ccccc12`, the Ki at Carbonic anhydrase 1 was more than 10 µM; in test [1], 8.71 µM; at Carbonic anhydrase 2, more than 10 µM.
On to `O=C(COc1ccc2c3c(c(=O)oc2c1)CCC3)c1ccc(Cl)cc1`, for which the Ki (at Carbonic anhydrase 1; in test [1]; at Carbonic anhydrase 2) was more than 10 µM throughout.
On to `O=c1[nH]nc(SCc2ccc(Cl)cc2Cl)c(=O)[nH]1`, for which the Ki on Carbonic anhydrase 1 and at Carbonic anhydrase 2 was more than 10 µM throughout.
For `NC(=O)c1cn(Cc2c(F)cccc2F)nn1` [RUFINAMIDE], the inhibition constant (Ki) at Carbonic anhydrase 1 is more than 10 µM; in test [1] it was 0.344 µM; on Carbonic anhydrase 2 it was more than 10 µM.
Turning to `COc1cc(CC(=O)O)ccc1OS(=O)(=O)O`, the Ki at Carbonic anhydrase 1 and on Carbonic anhydrase 2 was more than 10 µM each time.
With `O=C(CSc1ccncc1)N[C@@H]1C(=O)N2C(C(=O)O)=C(CO)CS[C@H]12`, the Ki on Carbonic anhydrase 1 and on Carbonic anhydrase 2 was more than 10 µM each time.
As for `O=C(CCNc1n[nH]c(=O)[nH]c1=O)N/N=C\c1c(F)cccc1Cl`, the Ki at Carbonic anhydrase 1 and at Carbonic anhydrase 2 was more than 10 µM throughout.
As to `COc1cc2nccc(Oc3ccc(NC(=O)NC4CC4)c(Cl)c3)c2cc1C(N)=O` [LENVATINIB], the Ki is more than 10 µM at Carbonic anhydrase 1, 0.133 µM in test [1] and more than 10 µM at Carbonic anhydrase 2.
For the compound `Nc1nc(=O)c2nc(CNc3ccc(C(=O)N[C@H](CCC(=O)O)C(=O)O)cc3)cnc2[nH]1`, the Ki on Carbonic anhydrase 1 is more than 10 µM; in test [1] it was 9.75 µM; on Carbonic anhydrase 2 it was more than 10 µM.
On to `CC(=O)c1cc(O)cc(O)c1`, for which the Ki on Carbonic anhydrase 1 and on Carbonic anhydrase 2 was more than 10 µM throughout.
In the case of `Nc1ccc2c(n1)[nH]c1ccccc12`, the Ki at Carbonic anhydrase 1 and on Carbonic anhydrase 2 was more than 10 µM in each case.
